The results in this text go back to PubChem BioAssay AID1918952 (Molecular Pharmacology Branch, DTP, NCI, 2023).

The subject of this assay is LG0703-F948-PDC complex spheroid viability. Kind of assay: Anticancer human tumor LG0703-F948-PDC patient-derived lung adenocarcinoma cell line growth inhibition. The conditions noted are these: for viability, T/C: stronger effect = lower value; for IC50: curve of compound. The text has this: Multicellular complex tumor spheroid response to LSD1 Inhibitor Iadademstat in combination with a variety of drugs and investigational agents in selected tumor cell lines
The current study was undertaken to assess response to LSD1 inhibitors in combination with standard-of-care drugs and investigational agents in solid tumor complex spheroid models as well as in the K-562 leukemia. Complex spheroids include a stromal component modeled by human endothelial cells (HUVEC) and fibroblasts modeled by human mesenchymal stem cells (MSCs). The concentration ranges selected for each drug and investigational agent were based upon clinically achievable concentrations if the clinical Cmax of the agent was known.
Compounds. The drugs and investigational agents used in this study are listed on Table 1. All of the agents used, including staurosporine (NSC755774) and gemcitabine (NSC613327), were obtained from the Developmental Therapeutics Program, NCI. FDA-approved anticancer drugs are available from the NCI at http://dtp.nci.nih.gov/branches/dscb/oncology_drugset_explanation.html. Drugs and investigational agents were >95% pure by proton nuclear magnetic resonance (NMR) and liquid chromatography/mass spectrometry (LC/MS). Stock solutions were prepared at 400x in DMSO, stored at -70 degrees C, and diluted in fresh medium prior to their use. The final concentration of DMSO in cell culture wells never exceeded 0.25% (v/v). The FDA-approved anticancer drug set is available from the Developmental Therapeutics Program at https://dtp.cancer.gov/organization/dscb/obtaining/available_plates.htm. All drugs and investigational agents were tested over a range starting from a high concentration at or near the clinical Cmax and decreasing in half-log increments. If the clinical Cmax for an agent had not been determined, the highest concentration tested was 10 microM.
Cell Lines. The patient-derived cancer cell (PDC) lines: 292921-168-R-J2-PDC, K24384-001-R-PDC, and 521955-158-R2-J5-PDC pancreatic carcinomas, 556581-035-R-J1 ovarian carcinoma, 324938-238-R-J1-PDC, 855422-203-R-J1-PDC and 883617-216-R-J1-PDC urothelial bladder carcinomas, 743489-274-T-PDC renal cell carcinoma, 138582-R-J1 Merkel cell tumor, K60290-347-R-J1 and K57222-313-R-J1-PDC glioblastomas, 653999-131-R-J2-PDC, LG0703-F948-PDC, and 349418-098-R-PDC non-small cell lung carcinomas, 885512-296-R-J2-PDC, 171881-019-R-J1-PDC breast carcinomas and 186277-243-T-J2-PDC and 233499-124-R-J2-PDC colon carcinomas were obtained from the NCI Patient-Derived Models Repository (PDMR, https://pdmr.cancer.gov). The established cell lines NCI/ADR-RES (RRID:CVCL_14520 and OVCAR-5 (RRID:CVCL_1628) ovarian carcinomas, 786-O (RRID:CVCL_1051) and A498 (RRID:CVCL_A498) renal cell carcinoma, NCI-H211 (ATCC, cat. CRL-5824; RRID:CVCL_1529), NCI-H196 (ATCC, cat. CRL-5823, RRID:CVCL_1509), SW 1271 (ATCC, cat. CRL-2177, RRID:CVCL_1716) and NCI-H1876 (ATCC, cat. CRL-5902, RRID:CVCL_1503) small cell lung carcinomas, MDA-MB-231 (RRID:CVCL_0062) and MDA-MB-468 (RRID:CVCL_0419)breast carcinomas (10-12). Pooled donor human umbilical vein endothelial cells (HUVEC, Lonza, cat. CC-2519) and human mesenchymal stem cells (hMSC, Lonza, cat. PT-2501) were purchased from Lonza (Walkersville, MD).
Cell Culture. All cells were maintained in an incubator at 37 degrees C and 5% CO2 with 95% humidity. The PDC lines were cultured according to standard operating procedures established by the NCI PDMR (https://pdmr.cancer.gov). Briefly all PDCs were thawed and cultured in Matrigel-coated flasks prepared with a working solution of 1X Ham's F-12 nutrient mix, without supplementation (Invitrogen, Waltham, MA, cat. 11765054), 100 U/mL penicillin-streptomycin (Invitrogen, cat. 15140122), and 2.5% Matrigel (Corning Inc., Corning, NY, cat. 354248) for the first three passages. […]

Values joined by “and” are separate entries in the source; they are usually repeats but may differ in a detail not shown here. Identical values can stand only once.
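Further: spheroids exposed to agents for seven days before readout.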
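Wherever viability, T/C is given: 100% = DMSO vehicle control wells as normalization base.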

Take `CC(C)CC(NC(=O)C(Cc1ccccc1)NC(=O)c1cnccn1)B(O)O` (configuration not stated): the half-inhibitory concentration (IC50) is less than 0.316 nM. For the same compound, the viability, T/C (compound 0.000316 µM) is 11.1% and 6.84%. Besides, the viability, T/C (compound 0.001 µM) was 1.41% and 0.31%. The viability, T/C (compound 0.00316 µM) was 0.63% and 0.15%. For the same compound, the viability, T/C (compound 0.01 µM) was 0.17%. For the same compound, the viability, T/C (compound 0.0316 µM) is 0.14% and 0.17%. Further, where the note is “compound 0.1 µM”, the viability, T/C is 0.21% and 0.29%.

With `CC(C)CC(NC(=O)CNC(=O)c1cc(Cl)ccc1Cl)B1OC(=O)CC(CC(=O)O)(C(=O)O)O1` (configuration not stated), the IC50 is 5.04 nM and 3.85 nM. In addition, under “compound 0.000316 µM”, the viability, T/C was 102% and 100%. Further, the viability, T/C (compound 0.001 µM) is 104% and 92.3%. Also, the viability, T/C (compound 0.00316 µM) is 68.4% and 56.8%. Moreover, the viability, T/C (compound 0.01 µM) was 21.7% and 15.9%. Besides, the viability, T/C (compound 0.0316 µM) is 3.57% and 2.13%. Further, for the setting “compound 0.1 µM”, the viability, T/C was 0.76% and 0.44%.

On to `CC1COCCN1c1cc(-c2ccnn2C)c2ccnc(-c3ccn[nH]3)c2n1` (configuration not stated), for which the IC50 is 29 nM and 19.7 nM. For the same compound, the viability, T/C (compound 0.00316 µM) was 66.6% and 63.7%. The viability, T/C (compound 0.01 µM) was 59.2% and 61.9%. In addition, the viability, T/C (compound 0.0316 µM) is 47.8% and 42.4%. Further, for the setting “compound 0.1 µM”, the viability, T/C was 39.4% and 29.3%. Moreover, for the setting “compound 0.316 µM”, the viability, T/C was 28.8% and 27.1%. For the same compound, the viability, T/C (compound 1 µM) was 14% and 10.7%.

On to `CC[C@@]1(O)C(=O)OCc2c1cc1n(c2=O)Cc2cc3c(CN(C)C)c(O)ccc3nc2-1`, for which the IC50 is 75.4 nM and 66.7 nM. The viability, T/C (compound 0.000316 µM) is 111% and 107%. Moreover, the viability, T/C (compound 0.001 µM) was 97% and 103%. The viability, T/C (compound 0.00316 µM) is 96.5% and 94.7%. In addition, the viability, T/C (compound 0.01 µM) is 92.4% and 88.5%. Further, for the setting “compound 0.0316 µM”, the viability, T/C was 65.7% and 67.3%. For the setting “compound 0.1 µM”, the viability, T/C is 44.6% and 40.1%.

For the compound `CCc1c2c(nc3ccc(O)cc13)-c1cc3c(c(=O)n1C2)COC(=O)[C@]3(O)CC`, the IC50 was < 0.949 nM and 0.999 nM. Besides, the viability, T/C (compound 0.000949 µM) is 46.8% and 51.2%. Besides, the viability, T/C (compound 0.003 µM) is 28.6% and 31%. Where the note is “compound 0.00949 µM”, the viability, T/C is 21.1% and 17.5%. Further, the viability, T/C (compound 0.03 µM) is 12.4% and 14.2%. Under “compound 0.0949 µM”, the viability, T/C was 9.01% and 6.61%. In addition, under “compound 0.3 µM”, the viability, T/C is 4.04% and 3.45%.

Regarding `COc1cc(Nc2ncc3c(n2)-c2ccc(Cl)cc2C(c2c(F)cccc2OC)=NC3)ccc1C(=O)O`, the 50% inhibitory concentration (IC50) was 205 nM and 196 nM. Moreover, the viability, T/C (compound 0.00316 µM) is 76.9% and 95.7%. Further, the viability, T/C (compound 0.01 µM) was 79.1% and 75.3%. Further, the viability, T/C (compound 0.0316 µM) was 76.3% and 75.3%. Besides, the viability, T/C (compound 0.1 µM) was 67.7% and 64.7%. Further, under “compound 0.316 µM”, the viability, T/C was 39.2% and 42.6%. For the same compound, under “compound 1 µM”, the viability, T/C is 5.79% and 5.84%.

With `Cn1ncnc1C1c2n[nH]c(=O)c3cc(F)cc(c23)NC1c1ccc(F)cc1` (configuration not stated), the IC50 was more than 100 nM. In addition, for the setting “compound 0.000316 µM”, the viability, T/C was 97.7% and 106%. Besides, the viability, T/C (compound 0.001 µM) is 104% and 106%. Moreover, the viability, T/C (compound 0.00316 µM) is 87.8% and 95.8%. For the same compound, the viability, T/C (compound 0.01 µM) is 93.7% and 109%. Moreover, the viability, T/C (compound 0.0316 µM) was 93.5% and 93.3%. For the setting “compound 0.1 µM”, the viability, T/C is 79.6% and 91.1%.

Turning to `Nc1ccn(C2OC(CO)C(O)C2(F)F)c(=O)n1` (configuration not stated), the IC50 was 2.05 nM and 1.79 nM. For the same compound, the viability, T/C (compound 0.000949 µM) was 64.8% and 61.2%. For the setting “compound 0.003 µM”, the viability, T/C was 42.9% and 39.4%. In addition, the viability, T/C (compound 0.00949 µM) is 35.1% and 35%. For the same compound, the viability, T/C (compound 0.03 µM) is 37.9% and 33.9%. Besides, the viability, T/C (compound 0.0949 µM) was 36.3% and 30.8%. In addition, the viability, T/C (compound 0.3 µM) is 32.1% and 25.6%.

For the compound `Nc1ncn(C2CC(O)C(CO)O2)c(=O)n1` (configuration not stated), the IC50 is more than 1000 nM. Where the note is “compound 0.00316 µM”, the viability, T/C is 85% and 110%. Also, the viability, T/C (compound 0.01 µM) was 101% and 104%. The viability, T/C (compound 0.0316 µM) is 88.3% and 95.8%. Moreover, the viability, T/C (compound 0.1 µM) was 91.7% and 91.4%. Also, the viability, T/C (compound 0.316 µM) is 83.5% and 92.4%. For the same compound, the viability, T/C (compound 1 µM) was 79.6% and 91.2%.

`Nc1ncn(C2CC(O)C(CO)S2)c(=O)n1` (configuration not stated): the IC50 is more than 300 nM. Moreover, under “compound 0.000949 µM”, the viability, T/C was 91.3% and 115%. Where the note is “compound 0.003 µM”, the viability, T/C was 118% and 98.8%. Further, where the note is “compound 0.00949 µM”, the viability, T/C was 95.8% and 96.4%. In addition, for the setting “compound 0.03 µM”, the viability, T/C was 112% and 99.8%. Besides, the viability, T/C (compound 0.0949 µM) was 111% and 96.1%. Moreover, the viability, T/C (compound 0.3 µM) is 84.7% and 78.1%.

As for `O=C(C=Cn1cnc(-c2cc(C(F)(F)F)cc(C(F)(F)F)c2)n1)NNc1cnccn1`, the half-inhibitory concentration (IC50) was 8.72 nM and 8.71 nM. Further, the viability, T/C (compound 0.00316 µM) is 53.4% and 53.9%. In addition, for the setting “compound 0.01 µM”, the viability, T/C was 51.9% and 52.1%. For the same compound, the viability, T/C (compound 0.0316 µM) was 43.6% and 42.3%. Where the note is “compound 0.1 µM”, the viability, T/C was 38% and 35.1%. For the same compound, the viability, T/C (compound 0.316 µM) was 35.2% and 29.4%. Also, the viability, T/C (compound 1 µM) was 30.5% and 24.9%.
